Holding throughout (type): in vivo, SD rats
The subject of assay [1] is warfarin-induced rats. Kind of assay: Tail transection hemorrhage model, antagonizing warfarin (bleeding loss and WBCT). Particulars: for Tail Transection Bleeding Loss: jugular vein injection, bleeding loss over 15 min. On the procedure:
Tail transection hemorrhage model: In all groups except for Control group and Compound 1 20 mg/kg+N.S. control group, SD rats were administered warfarin by oral gavage once daily for 3 consecutive days. 30 min after the final administration, the rats were injected with 10% chloral hydrate via intraperitoneal injection. The anaesthetized animals were placed on an electric heating blanket preheated to 37°C. Jugular vein was isolated and cannulated within 30 min. Normal saline or drug was injected via the jugular vein. 5 min after injection, a transection was made 5 mm away from the tip of the rat's tail. Bleeding loss (BL) over 15 min was recorded. At the end of the experiment, blood was collected from the abdominal cavity and WBCT was measured. Temperatures including room temperature and water bath temperature were strictly controlled throughout the experiment.

Assay [2] concerns heparin-induced rats. Kind of assay: Tail transection hemorrhage model, antagonizing heparin. Particulars: bleeding loss over 15 min. On the procedure:
(§1) Tail transection hemorrhage model: […] The anaesthetized animals were placed on an electric heating blanket preheated to 37°C. Jugular vein was isolated and cannulated within 30 min. Normal saline or drug was injected via the jugular vein. 5 min after injection, a transection was made 5 mm away from the tip of the rat's tail. Bleeding loss (BL) over 15 min was recorded. Temperatures including room temperature and water bath temperature were strictly controlled throughout the experiment.

In assay [3] the test system is enoxaparin-induced rats. Kind of assay: Hepatic laceration hemorrhage model, antagonizing enoxaparin. The note with it: for Hepatic Laceration Bleeding Loss: bleeding loss over 30 min; for Inhibition Rate: hepatic laceration bleeding loss, vs Vehicle (enoxaparin).
The subject of assay [4] is enoxaparin-induced rats. The assay can be described thus: Tail transection hemorrhage model, antagonizing enoxaparin. Particulars: bleeding loss over 15 min. On the procedure:
as §1

In assay [5] the test system is heparin-induced rats. The assay can be described thus: Hepatic laceration hemorrhage model, antagonizing heparin. The note with it: for Hepatic Laceration Bleeding Loss: bleeding loss over 30 min.
Assay [6] relates to warfarin-induced rats. The assay can be described thus: Hepatic laceration hemorrhage model, antagonizing warfarin. The note with it: for Hepatic Laceration Bleeding Loss: jugular vein injection, bleeding loss over 30 min; for Inhibition Rate: hepatic laceration bleeding loss, vs Vehicle (warfarin). On the procedure:
Hepatic laceration hemorrhage model: In all groups except for Control group and Compound 1 20 mg/kg+N.S. control group, SD rats were administered warfarin by oral gavage once daily for 3 consecutive days. 30 min after the final administration, the rats were injected with 10% chloral hydrate via intraperitoneal injection. The anaesthetized animals were placed on an electric heating blanket preheated to 37°C. Jugular vein was isolated and cannulated within 30 min. Aspirin was administered and 30 min later, test substances were injected via the jugular vein. 5 min after injection, the abdominal cavity was opened, and 3 standard incisions, each with a length of 1 cm and a depth of 2 mm, were made on the liver. Blood flowing from the liver was absorbed with pre-weighed dry cotton, and bleeding loss (BL) over 30 min was recorded.

Setting [7] is: 20 mg/kg+warfarin, blood collected at the end of the experiment.
Setting [8] is: 10 mg/kg+heparin, listed as compound 1.
Setting [9] is: 5 mg/kg+enoxaparin, listed as compound 1.
[10] abbreviates: Rattus norvegicus, read-out: Inhibition Rate.

As for `N=C(N)NCCCC(N)C(=O)NCCCn1c(=O)c2c(ncn2CCCNC(=O)C(N)CCCNC(=N)N)n(CCCNC(=O)C(N)CCCNC(=N)N)c1=O` (stereo not drawn) [Compound 1], the WBCT entry in the assay on warfarin-induced rats [1] (20 mg/kg+N.S. (no warfarin), compared to the Control group) is “no significant changes”; with warfarin-induced rats [1] (setting [7]) it was 490 ± 99 s; in the assay on warfarin-induced rats [1] (20 mg/kg+warfarin, blood collected at the end of the experiment, listed as compound 1), “significantly shortened”. The “Tail Transection Bleeding Loss” value in the assay with warfarin-induced rats [1] (20 mg/kg+warfarin) is 0.0143 ± 0.0108 g; in the assay on warfarin-induced rats [1] (20 mg/kg+warfarin, listed as compound 1) it was “significantly reduced”; in the assay with heparin-induced rats [2] (5 mg/kg+heparin), 38.3625 ± 12.6991 mg; in the assay on heparin-induced rats [2] (10 mg/kg+heparin), 19.9375 ± 22.3215 mg; with heparin-induced rats [2] (setting [8]), “significantly reduced”; in the assay on heparin-induced rats [2] (20 mg/kg+heparin) it was 12.1125 ± 6.6714 mg. Also, the “Tail Transection Bleeding Loss” value with enoxaparin-induced rats [4] (0.2 mg/kg+enoxaparin) is 0.0903 ± 0.0426 g; with enoxaparin-induced rats [4] (1 mg/kg+enoxaparin) it was 0.0302 ± 0.0147 g; with enoxaparin-induced rats [4] (5 mg/kg+enoxaparin) it was 0.0158 ± 0.0083 g; in the assay on enoxaparin-induced rats [4] (setting [9]) it was “superior to the 20 mg/kg PER977 group”. The “Hepatic Laceration Bleeding Loss” value in the assay on enoxaparin-induced rats [3] (0.2 mg/kg+enoxaparin) was 0.5253 ± 0.2034 g; with enoxaparin-induced rats [3] (1 mg/kg+enoxaparin), 0.1674 ± 0.0734 g; in the assay on enoxaparin-induced rats [3] (1 mg/kg+enoxaparin, listed as compound 1), “significantly reduced”; in the assay with enoxaparin-induced rats [3] (5 mg/kg+enoxaparin), 0.0490 ± 0.0184 g; with enoxaparin-induced rats [3] (setting [9]) it was “significantly reduced”; in the assay on heparin-induced rats [5] (5 mg/kg+heparin) it was 0.3217 ± 0.0919 g. In addition, the “Hepatic Laceration Bleeding Loss” value with heparin-induced rats [5] (10 mg/kg+heparin) was 0.1794+0.0966 g; in the assay on heparin-induced rats [5] (setting [8]), “significantly reduced”; in the assay on heparin-induced rats [5] (20 mg/kg+heparin) it was 0.0560+0.0408 g; in the assay with warfarin-induced rats [6] (5 mg/kg+warfarin) it was 0.3029 ± 0.1189 g; with warfarin-induced rats [6] (10 mg/kg+warfarin) it was 0.2379 ± 0.1613 g; in the assay on warfarin-induced rats [6] (20 mg/kg+warfarin) it was 0.0784 ± 0.0346 g. Moreover, the “Inhibition Rate” value with enoxaparin-induced rats [3] (0.2 mg/kg+enoxaparin) is -17.1%; in the assay on enoxaparin-induced rats [3] (1 mg/kg+enoxaparin), 62.7%; in the assay on enoxaparin-induced rats [3] (5 mg/kg+enoxaparin), 89.1%; in the assay on warfarin-induced rats [6] (5 mg/kg+warfarin), -7.9; in the assay with warfarin-induced rats [6] (10 mg/kg+warfarin), 15.3; with warfarin-induced rats [6] (20 mg/kg+warfarin), 72.1. Further, the “inhibition rate for hepatic laceration bleeding loss” value in the assay on heparin-induced rats [5] (10 mg/kg compound 1 (so in the source)+heparin, compared to the Vehicle group) is 88.9%. Also, the “inhibited hepatic laceration bleeding loss” value with warfarin-induced rats [6] (20 mg/kg+warfarin, compared to the Vehicle group) stood at 72.1%.
One may read the inhibition as the drop in the measured response relative to a control, in per cent. The molecule `N=C(N)NCCC[C@H](N)C(=O)NCCCN1CCN(CCCNC(=O)[C@@H](N)CCCNC(=N)N)CC1` [PER977, diarginine piperazine, reference compound] showed a WBCT in the assay with warfarin-induced rats [1] (setting [7]) of 471 ± 101 s. Moreover, the “Tail Transection Bleeding Loss” value was 0.0276 ± 0.0123 g in the assay with warfarin-induced rats [1] (20 mg/kg+warfarin), 17.9000 ± 11.6004 mg in the assay with heparin-induced rats [2] (20 mg/kg+heparin) and 0.0228 ± 0.0155 g in the assay with enoxaparin-induced rats [4] (20 mg/kg+enoxaparin). Also, the “Hepatic Laceration Bleeding Loss” value with enoxaparin-induced rats [3] (20 mg/kg+enoxaparin) was 0.0420 ± 0.0244 g; in the assay on heparin-induced rats [5] (20 mg/kg+heparin), 0.0511 ± 0.0444 g; with warfarin-induced rats [6] (20 mg/kg+warfarin), 0.0874 ± 0.0292 g. Moreover, the inhibition at 20 mg/kg in the assay with enoxaparin-induced rats [3] (setting [10]) is 90.6%; in the assay on warfarin-induced rats [6] (setting [10]) it was 68.9%.

(Values after patent EP4692086A1, “ANTICOAGULATION REVERSAL AGENT, AND PREPARATION METHOD THEREFOR AND USE THEREOF” (Shaanxi Micot Pharmaceutical Technology Co., Ltd., priority 2023, dated 2024).)
